Measurements published in patent US12441727B2, “Tricyclic compounds as inhibitors of KRAS” (Incyte Corporation, priority 2021, dated 2025).
pIC50: −log10 of the molar value. Where two headings read alike, the source gives them in different places.

Columns and labels:
[1] = system: KRAS_G12C pERK; assay: Cellular pERK HTRF assay (KRAS_G12C pERK assay); assay type: cell-based, human; conditions: KRAS G12C cells, 4 hours incubation with compound, read-out: G12C_pERK
Procedure: MIA PaCa-2 (KRAS G12C; ATCC® CRL-1420), NCI-H358 (KRAS G12C; ATCC® CRL-5807), A427 (KRAS G12D; ATCC® HTB53), HPAFII (KRAS G12D; ATCC® CRL-1997), YAPC (KRAS G12V; DSMZ ACC382), SW480 (KRAS G12V; ATCC® CRL-228) and NCI-H838 (KRAS WT; ATCC® CRL-5844) cells are purchased from ATCC and maintained in RPMI 1640 media supplemented with 10% FBS (Gibco/Life Technologies). The cells are plated at 5000 cells per well (8 uL) into Greiner 384-well low volume, flat-bottom, and tissue culture treated white plates and incubated overnight at […], 5% CO2. The next morning, test compound stock solutions are diluted in media at 3× the final concentration and 4 uL are added to the cells, with a final concentration of 0.1% of DMSO. The cells are incubated with the test compounds for 4 hours (G12C and G12V) or 2 hrs (G12D) at 37° C., 5% CO2. Four uL of 4× lysis buffer with blocking reagent (Cisbio) are added to each well and plates are rotated gently (300 rpm) for 30 minutes at room temperature. Four uL per well of Cisbio anti Phospho-ERK 1/2 d2 is mixed with anti Phospho-ERK 1/2 Cryptate (1:1), and added to each well, incubated overnight in the dark at room temperature. Plates are read on the Pherastar plate reader at 665 nm and 620 nm wavelengths. Data are analyzed in Genedata Screener using SmartFit for IC50 values.

[2] = target: KRAS G12C (Homo sapiens, UniProt P01116, G12C); assay: GDP-GTP exchange assay (KRAS_G12C exchange assay); assay type: biochemical; conditions: bodipy-loaded KRAS G12C 2.5 nM, SOS1 150 nM, 2 hours pre-incubation with inhibitor; read-out: G12C_exchange
Sequence of KRAS G12C (P01116 1-188 isoform P01116-2 G12C): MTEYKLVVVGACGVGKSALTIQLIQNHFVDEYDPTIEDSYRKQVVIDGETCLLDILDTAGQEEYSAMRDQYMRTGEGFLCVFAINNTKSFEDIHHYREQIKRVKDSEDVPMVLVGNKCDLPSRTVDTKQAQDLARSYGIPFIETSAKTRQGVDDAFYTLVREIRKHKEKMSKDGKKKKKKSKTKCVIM
Procedure: The inhibitor potency of the exemplified compounds was determined in a fluorescence based guanine nucleotide exchange assay, which measures the exchange of bodipy-GDP (fluorescently labeled GDP) for GppNHp (Non-hydrolyzable GTP analog) to generate the active state of KRAS in the presence of SOS1 (guanine nucleotide exchange factor). Inhibitors were serially diluted in DMSO and a volume of 0.1 μL was transferred to the wells of a black low volume 384-well plate. 5 μL/well volume of bodipy-loaded KRAS G12C diluted to 5 nM in assay buffer (25 mM Hepes pH 7.5, 50 mM NaCl, 10 mM MgCl2 and 0.01% Brij-35) was added to the plate and pre-incubated with inhibitor for 2 hours at ambient temperature. Appropriate controls (enzyme with no inhibitor or with a G12C inhibitor (AMG-510)) were included on the plate. The exchange was initiated by the addition of a 5 μL/well volume containing 1 mM GppNHp and 300 nM SOS1 in assay buffer. The 10 μL/well reaction concentration of the bodipy-loaded KRAS G12C, GppNHp, and SOS1 were 2.5 nM, 500 uM, and 150 nM, respectively. The reaction plates were incubated at ambient temperature for 2 hours, a time estimated for complete GDP-GTP exchange in the absence of inhibitor. For the KRAS G12D and G12V mutants, similar guanine nucleotide exchange assays were used with 2.5 nM as final concentration for the bodipy loaded KRAS proteins and with 4 hours and 3 hours incubation after adding GppNHp-SOS1 mixture for G12D and G12V respectively. A cyclic peptide described to selectively bind G12D mutant (Sakamoto et al., BBRC 484.3 (2017), 605-611) or internal compounds with confirmed binding were used as positive controls in the assay plates. Fluorescence intensities were measured on a PheraStar plate reader instrument (BMG Labtech) with excitation at 485 nm and emission at 520 nm.
Either GraphPad prism or Genedata Screener SmartFit was used to analyze the data. The IC50 values were derived by fitting the data to a four parameter logistic equation producing a sigmoidal dose-response curve with a variable Hill coefficient.

SMILES | pIC50 [1] | pIC50 [2] | pIC50 ([1]; Homo sapiens, 4 h)
C=C(F)C(=O)N1CC[C@H](n2nnc3c(O[C@@H](C)[C@@H]4CCCN4C)nc4c(F)c(-c5c(C)ncc6ccccc56)c(C)cc4c32)C[C@H]1CC#N (single isomer, unassigned) [Example 23a] | – | 7.00 to 7.30 | –
C=CC(=O)N1CC[C@H](n2nnc3c(O[C@@H](C)[C@@H]4CCCN4C)nc4c(F)c(-c5cccc6c5c(CC#N)nn6C)c(C)cc4c32)C[C@H]1C (single isomer, unassigned) [Example 28a] | – | 6.00 to 7.00 | –
C=C(F)C(=O)N1CC[C@H](n2nnc3c(O[C@@H](C)[C@@H]4CCCN4C)nc4c(F)c(-c5c(F)ccc6ccc(C)nc56)c(C)cc4c32)C[C@H]1CC#N (single isomer, unassigned) [Example 25b] | ≥ 7.30 | ≥ 7.30 | –
C=CC(=O)N1CC[C@H](n2nnc3c(O[C@@H](C)[C@@H]4CCCN4C)nc4c(F)c(-c5cccc6c5c(CC#N)cn6C)c(C)cc4c32)C[C@H]1C (single isomer, unassigned) [Example 31a] | – | 6.00 to 7.00 | –
C=CC(=O)N1CC[C@H](n2nnc3c(O[C@@H](C)[C@@H]4CCCN4C)nc4c(F)c(-c5cccc6cccc(C#N)c56)c(C)cc4c32)C[C@H]1C (single isomer, unassigned) [Example 14a] | – | 7.00 to 7.30 | –
C=C(F)C(=O)N1CC[C@H](n2nnc3c(N4CC(C)(N(C)C)C4)nc4c(F)c(-c5cccc6cccc(C#N)c56)c(C)cc4c32)C[C@H]1CC#N (single isomer, unassigned) [Example 17b] | – | 6.00 to 7.00 | –
C=CC(=O)N1CCC(n2nnc3c(O[C@@H](C)[C@@H]4CCCN4C)nc4c(F)c(-c5cccc6c5c(CC#N)cn6C)c(C)cc4c32)CC1 (single isomer, unassigned) [Example 32a] | – | 7.00 to 7.30 | –
C=C(F)C(=O)N1CC[C@H](n2nnc3c(N4CC(N(C)CC)C4)nc4c(F)c(-c5c(C)c(C)cc6[nH]ncc56)c(C)cc4c32)C[C@H]1CC#N (single isomer, unassigned) [Example 15b] | – | 6.00 to 7.00 | –
C=C(F)C(=O)N1CC[C@H](n2nnc3c(N4CC(C)(N(C)CC)C4)nc4c(F)c(-c5c(C)c(C)cc6[nH]ncc56)c(Cl)cc4c32)C[C@H]1CC#N (single isomer, unassigned) [Example 33b] | – | 6.00 to 7.00 | –
C=C(F)C(=O)N1CC[C@H](n2nnc3c(N4CC(C)(N(C)CC)C4)nc4c(F)c(-c5c(C)c(F)cc6[nH]ncc56)c(Cl)cc4c32)C[C@H]1CC#N (single isomer, unassigned) [Example 35b] | – | 6.00 to 7.00 | –

Now from value to compound:

pIC50 [1] | pIC50 [2] | pIC50 ([1]; Homo sapiens, 4 h) | SMILES
≥ 7.30 | ≥ 7.30 | – | C[C@H](Oc1nc2c(F)c(-c3ccc(F)c4cccnc34)c(C(F)(F)F)cc2c2c1nnn2[C@H]1CCN(C(=O)/C=C/CF)[C@H](CC#N)C1)[C@@H]1CCCN1C (single isomer, unassigned) [Example 4b]
6.00 to 7.00 | ≥ 7.30 | – | COC/C=C/C(=O)N1CC[C@H](n2nnc3c(N4CC(C)(N(C)C)C4)nc4c(Cl)c(-c5ccc(F)c6cccnc56)c(Cl)cc4c32)C[C@H]1CC#N (single isomer, unassigned) [Example 18b]
– | ≥ 7.30 | 6.00 to 7.00 | Cc1cc2c(nc(O[C@@H](C)[C@@H]3CCCN3C)c3nnn(C4CCN(C(=O)/C=C/CF)CC4)c32)c(F)c1-c1cccc2cccc(C#N)c12 (single isomer, unassigned) [Example 16a]
≥ 7.30 | ≥ 7.30 | – | CN(C)C1(C)CN(c2nc3c(Cl)c(-c4ccc(F)c5cccnc45)c(Cl)cc3c3c2nnn3[C@H]2CCN(C(=O)/C=C/CF)[C@H](CC#N)C2)C1 (single isomer, unassigned) [Example 19b]
– | ≥ 7.30 | 6.00 to 7.00 | C=CC(=O)N1CCC(n2nnc3c(O[C@@H](C)[C@@H]4CCCN4C)nc4c(F)c(-c5cccc6cccc(C#N)c56)c(C)cc4c32)CC1 (single isomer, unassigned) [Example 11a]
– | ≥ 7.30 | ≥ 7.30 | COC/C=C/C(=O)N1CC[C@H](n2nnc3c(O[C@@H](C)[C@@H]4CCCN4C)nc4c(F)c(-c5c(F)cccc5OC)c(C)cc4c32)C[C@H]1CC#N (single isomer, unassigned) [Example 34a]
